This is an account of results in PubChem BioAssay (NCI).

Among the test systems are SN12C renal; SNB-19 CNS; SF-539 CNS; OVCAR-5 ovarian; HCT-15 colon; SK-MEL-28 melanoma; RPMI-8226 leukemia; OVCAR-3 ovarian; DU-145 prostate.
What all share (experiment): inhibition of tumour cell growth, NCI panel, 48 h

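In this assay, cells in 96-well plates receive the compound at five concentrations for 48 hours. Endpoints are linearly interpolated between the surrounding concentrations. GI50 marks 50% less growth. The concentration for full growth arrest is given as TGI.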

As to `COc1ccc(C(=O)C/C(=N/NC(N)=S)C(=O)Nc2ccccc2)cc1`, the TGI with SN12C renal, with SNB-19 CNS, in the assay on SF-539 CNS, in the assay on OVCAR-5 ovarian, with HCT-15 colon and in the assay with SK-MEL-28 melanoma was > 100 µM each time. Besides, the TGI in the assay on RPMI-8226 leukemia and with OVCAR-3 ovarian was > 100 µM throughout.

Turning to `CCOC(=O)C1=C(C)N(NC(=O)OC)C2(N)N(NC(=O)OC)C(C)=C(C(=O)OCC)C12C#N` (configuration not stated), the TGI in the assay with SN12C renal, in the assay on SNB-19 CNS, with SF-539 CNS, in the assay with OVCAR-5 ovarian, in the assay on HCT-15 colon and with SK-MEL-28 melanoma was > 100 µM each time. Also, the TGI in the assay on RPMI-8226 leukemia and with OVCAR-3 ovarian was > 100 µM in each case.

`Cc1cc(Cl)ccc1N1C(=O)C(=O)C(c2nc3ccccc3o2)C(=O)C1=O`: the TGI with SN12C renal, in the assay with SNB-19 CNS, with SF-539 CNS, in the assay with HCT-15 colon, in the assay on SK-MEL-28 melanoma and in the assay on OVCAR-3 ovarian was > 100 µM each time.

Consider `N#CSCC1CC(O)(c2ccccc2)CC(c2ccc(Cl)cc2)O1` (configuration not stated), for which the GI50 was 1.81 µM in the assay with SN12C renal; 6.9 µM with SNB-19 CNS; 1.54 µM with SF-539 CNS; 2.18 µM in the assay with DU-145 prostate; 12.8 µM in the assay with OVCAR-5 ovarian; 2.4 µM with HCT-15 colon. In addition, the GI50 in the assay on SK-MEL-28 melanoma is 1.84 µM; with RPMI-8226 leukemia, 1.26 µM; with OVCAR-3 ovarian, 1.72 µM. Further, the TGI in the assay with SN12C renal was 3.77 µM; with SNB-19 CNS, 19.7 µM; with SF-539 CNS it was 3.32 µM; with DU-145 prostate, 4.72 µM; in the assay with OVCAR-5 ovarian it was 26 µM; in the assay with HCT-15 colon, 8.05 µM. Also, the TGI with SK-MEL-28 melanoma turned out to be 4.57 µM; in the assay on RPMI-8226 leukemia, 5.39 µM; with OVCAR-3 ovarian it was 3.14 µM.

`CC1NCCc2c1[nH]c1cc(O)ccc21` (configuration not stated): the TGI in the assay with SN12C renal, with SNB-19 CNS, in the assay on SF-539 CNS, in the assay with OVCAR-5 ovarian, in the assay with HCT-15 colon and in the assay with SK-MEL-28 melanoma was > 100 µM throughout. Moreover, the TGI in the assay with RPMI-8226 leukemia and in the assay on OVCAR-3 ovarian was > 100 µM throughout.

As for `CCOC(=O)N1CCc2cc(OC)c(OC)cc2/C1=C/c1ccc(OC)c(OC)c1`, the TGI in the assay on SN12C renal, with SNB-19 CNS, with SF-539 CNS, in the assay with OVCAR-5 ovarian, in the assay with HCT-15 colon and with SK-MEL-28 melanoma was > 100 µM throughout. Besides, the TGI in the assay on RPMI-8226 leukemia is 56.5 µM; in the assay with OVCAR-3 ovarian it was > 100 µM.

For the molecule `CN(C)CCC(=O)N1CCc2c([nH]c3ccccc23)C1c1cccnc1` (configuration not stated), the TGI in the assay with SN12C renal, in the assay with SNB-19 CNS, with SF-539 CNS, in the assay on OVCAR-5 ovarian, with HCT-15 colon and in the assay on SK-MEL-28 melanoma was > 100 µM throughout. Further, the TGI with RPMI-8226 leukemia and in the assay with OVCAR-3 ovarian was > 100 µM throughout.

For the molecule `CN(C)CCC(/C=C/c1ccccc1)=N\Nc1ccc(Cl)cc1`, the TGI in the assay on SN12C renal came out at 7.03 µM; with SNB-19 CNS, 27.5 µM; in the assay on SF-539 CNS, 5.32 µM; in the assay with OVCAR-5 ovarian it was 2.89 µM; in the assay on HCT-15 colon, 15.2 µM; in the assay with SK-MEL-28 melanoma it was 27.2 µM. The TGI in the assay on RPMI-8226 leukemia worked out at 4.69 µM; in the assay with OVCAR-3 ovarian, 22.5 µM.

Turning to `C=C[Si](C)(C)COC(=O)/C(C#N)=C/C=C/c1ccccc1`, the TGI with SN12C renal, in the assay on SNB-19 CNS, in the assay on SF-539 CNS, in the assay with OVCAR-5 ovarian, in the assay on HCT-15 colon and with SK-MEL-28 melanoma was > 100 µM throughout. Moreover, the TGI with RPMI-8226 leukemia and in the assay with OVCAR-3 ovarian was > 100 µM each time.

On to `NC1=NCC(c2ccccn2)C1c1ccc(F)cc1` (configuration not stated), for which the TGI in the assay with SN12C renal, with SNB-19 CNS, in the assay with SF-539 CNS, in the assay with OVCAR-5 ovarian, with SK-MEL-28 melanoma and in the assay with RPMI-8226 leukemia was > 100 µM each time. Further, the TGI in the assay with OVCAR-3 ovarian was > 100 µM.

In the case of `Cc1cc(Cl)cc2c1NC(=O)C2(O)CC(=O)c1ccc(F)cc1` (configuration not stated), the TGI with SN12C renal, with SNB-19 CNS, in the assay with SF-539 CNS, with OVCAR-5 ovarian, in the assay on HCT-15 colon and in the assay on SK-MEL-28 melanoma was > 100 µM in each case. In addition, the figures for the TGI in the assay on RPMI-8226 leukemia and in the assay on OVCAR-3 ovarian were 65.3 µM and 96.5 µM, respectively.

Take `Cc1cccc(Cl)c1NC(=O)c1cccc([N+](=O)[O-])c1O`: the TGI in the assay with SN12C renal was > 100 µM; in the assay with SNB-19 CNS, > 100 µM; in the assay with SF-539 CNS, 85.2 µM; with OVCAR-5 ovarian, > 100 µM; in the assay with HCT-15 colon, > 100 µM; in the assay with SK-MEL-28 melanoma, > 100 µM. For the same molecule, the TGI in the assay on RPMI-8226 leukemia stood at 64.6 µM; with OVCAR-3 ovarian, 76.4 µM.

On to `O=[N+]([O-])c1ccc2nc3ccscc-3c2c1`, for which the TGI was > 100 µM with SNB-19 CNS; 50.4 µM in the assay with SF-539 CNS; > 100 µM with OVCAR-5 ovarian; > 100 µM in the assay with HCT-15 colon; > 100 µM in the assay with SK-MEL-28 melanoma; 44.1 µM in the assay on RPMI-8226 leukemia. Further, in the assay on OVCAR-3 ovarian, the TGI is > 100 µM.

For the molecule `CC(=O)OCC1OC(n2c(=S)n(-c3ccccc3)c(=O)c3cc(Br)ccc32)C(OC(C)=O)C(OC(C)=O)C1OC(C)=O` (configuration not stated), the TGI in the assay on SN12C renal, in the assay on SNB-19 CNS, with SF-539 CNS, in the assay with OVCAR-5 ovarian, with HCT-15 colon and with SK-MEL-28 melanoma was > 100 µM throughout. For the same molecule, the TGI with RPMI-8226 leukemia and in the assay with OVCAR-3 ovarian was > 100 µM each time.

Regarding `Cc1cccc2cc3cccc(C(=O)NCCN(C)C)c3nc12`, the TGI with SN12C renal turned out to be 1.02 µM; with SNB-19 CNS it was 6.06 µM; with SF-539 CNS, 1.61 µM; with OVCAR-5 ovarian it was 1.63 µM; in the assay on HCT-15 colon, 1.5 µM; in the assay on SK-MEL-28 melanoma, 2.21 µM. In the assay with OVCAR-3 ovarian, the TGI was determined as 5.38 µM.

On to `O=C1[C@@H]2C(c3ccncc3)=NO[C@@H]2C(=O)N1c1ccc(Cc2ccc(N3C(=O)[C@H]4C(c5ccncc5)=NO[C@H]4C3=O)cc2)cc1`, for which the TGI with SN12C renal, in the assay with SF-539 CNS, in the assay with OVCAR-5 ovarian, with HCT-15 colon, in the assay on SK-MEL-28 melanoma and in the assay on RPMI-8226 leukemia was > 100 µM each time. Also, the TGI in the assay on OVCAR-3 ovarian was > 100 µM.
